This is an account of results in publication PMC11869342, “Design and synthesis of novel HDAC6 inhibitor dimer as HDAC6 degrader for cancer treatment by palladium catalysed dimerisation” (Journal of Enzyme Inhibition and Medicinal Chemistry, 2025).

The GI50 is the concentration giving 50% growth inhibition. By IC50 is commonly meant the concentration needed to halve the response being measured.

Molecules are shown by their SMILES. “Also recorded” adds a separate entry of the source.

For one series, the system named is Ac-α-tubulin. Put plainly: Western blotting of Ac-α-tubulin in PC-3 cells. It is filed as cell-based, human. The conditions noted are these: 30 μM, 24 h. The procedure:
(§1) Figure 3. Western blotting analysis of (a) HDAC6 protein in PC-3 cells treated with various dimer compounds at 30 μM for 24 h, (b) Ac-α-tubulin protein in PC-3 cells treated with various dimer compounds at 30 μM for 24 h, (c) LC-3 I, LC-3 II, and p62 proteins in PC-3 cells treated with various dimer compounds at 30 μM for 24 h, (d) PARP-1 and Caspase-3 proteins in PC-3 cells treated with various dimer compounds at 30 μM for 24 h, (e) p-BUBR1^S670 and p-BUBR1^T680 proteins in PC-3 cells treated with various dimer compounds at 30 μM for 24 h. Glyceraldehyde 3-phosphate dehydrogenase (GAPDH) was used as the loading control.
(§2) After compound treatment, the cells were harvested and centrifuged. […] The supernatants quantified by Bio-Rad protein assay kit (Bio-Rad Laboratories, Hercules, CA) were mixed with sample buffer (0.3 M Tris pH6.8, 10% SDS, 50% glycerol, 10% β-mercaptoethanol, and 0.02% bromophenol blue) and heated at 95 °C for 10 min. The protein (30 µg) was separated by electrophoresis in 8% or 12% SDS-PAGE, transferred to PVDF membranes, and detected with specific antibodies (1:1000 dilution for the first and 1:7000 for the second antibodies). The immunoreactive proteins were detected with an enhanced chemiluminescence detection kit (Amersham, Buckinghamshire, UK) and the images were captured by ChemiDoc™ MP System (Bio-Rad Laboratories, Hercules, CA).
A general note: In western blotting, separated proteins are transferred to a membrane and probed.

The test system of a further series is A549 cells. Put plainly: Sulforhodamine B (SRB) assay, A549. It is filed as cell-based. The conditions noted are these: Homo sapiens; A549 cells, SRB, 48 h; read-out: GI50 con. ± SEM A549. The procedure: (§3) The A549 and PC-3 human lung and prostate cancer cell lines were acquired from the American Type Culture Collection (Rockville, MD). […] The cultures were kept in a 37 °C incubator with 5% CO2. When the adherent cultures reached 80% confluence, they were passaged using 0.05% trypsin-EDTA. PC-3 and A549 cells were seeded into 96-well plates in RPMI medium with 5% (v/v) foetal bovine serum for 24 h. Cells in partial wells were fixed with 10% trichloroacetic acid (TCA) to represent the initial time of compound treatment. The cells were treated with or without the indicated compound for 48 h and then were fixed with 10% TCA. After the washout with ddH2O and air-dried, SRB at 0.4% (w/v) in 1% acetic acid was added for staining. Unbound SRB was washed with 1% acetic acid and SRB-bounded cells were solubilised with 10 mM Tris base. The absorbance was read at a wavelength of 515 nm for the determination of cell growth.
A general note: The SRB assay estimates cell density from bound dye.

The test system of another series is PC-3 cells. Put plainly: Sulforhodamine B (SRB) assay, PC-3. It is filed as cell-based. The conditions noted are these: Homo sapiens; PC-3 cells, SRB, 48 h; read-out: GI50 con. ± SEM PC-3. The procedure:
as §3

For series [1], the target named is T1, HDAC6 (Homo sapiens, UniProt Q9UBN7).
T1 sequence (Q9UBN7 1-1215): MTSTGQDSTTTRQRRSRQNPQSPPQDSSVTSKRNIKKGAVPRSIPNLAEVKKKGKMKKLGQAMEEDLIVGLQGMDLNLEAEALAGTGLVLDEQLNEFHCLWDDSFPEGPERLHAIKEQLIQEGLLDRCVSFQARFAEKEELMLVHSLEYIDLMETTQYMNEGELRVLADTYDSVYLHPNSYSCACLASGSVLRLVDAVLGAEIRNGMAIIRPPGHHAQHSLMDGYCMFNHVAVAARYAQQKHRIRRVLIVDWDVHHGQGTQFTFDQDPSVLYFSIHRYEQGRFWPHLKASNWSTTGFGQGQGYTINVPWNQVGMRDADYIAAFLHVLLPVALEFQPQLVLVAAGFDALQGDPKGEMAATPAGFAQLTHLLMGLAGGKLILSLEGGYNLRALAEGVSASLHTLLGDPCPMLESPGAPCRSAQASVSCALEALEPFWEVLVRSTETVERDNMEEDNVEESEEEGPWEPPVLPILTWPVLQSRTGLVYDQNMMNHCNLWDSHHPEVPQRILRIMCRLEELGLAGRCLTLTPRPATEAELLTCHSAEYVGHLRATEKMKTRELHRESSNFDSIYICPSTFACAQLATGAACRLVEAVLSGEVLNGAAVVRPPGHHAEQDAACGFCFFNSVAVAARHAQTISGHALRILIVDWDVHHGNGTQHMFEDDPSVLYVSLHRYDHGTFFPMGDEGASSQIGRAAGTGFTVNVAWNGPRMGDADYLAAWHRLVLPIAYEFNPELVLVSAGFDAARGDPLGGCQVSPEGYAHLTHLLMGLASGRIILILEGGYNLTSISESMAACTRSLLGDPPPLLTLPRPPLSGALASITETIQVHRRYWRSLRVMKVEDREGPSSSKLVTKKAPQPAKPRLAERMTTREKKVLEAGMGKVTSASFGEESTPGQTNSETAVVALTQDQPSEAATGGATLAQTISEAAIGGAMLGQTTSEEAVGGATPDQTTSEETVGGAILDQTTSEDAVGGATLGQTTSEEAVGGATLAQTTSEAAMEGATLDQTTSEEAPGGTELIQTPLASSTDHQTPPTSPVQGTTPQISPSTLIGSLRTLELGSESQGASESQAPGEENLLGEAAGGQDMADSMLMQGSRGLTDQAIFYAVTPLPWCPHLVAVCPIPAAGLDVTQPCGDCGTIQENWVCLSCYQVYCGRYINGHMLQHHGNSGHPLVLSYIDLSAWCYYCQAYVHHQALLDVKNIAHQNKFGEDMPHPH
Put plainly: HDAC enzyme activity assay (Reaction Biology), HDAC6. Set-up: Full-length recombinant hHDAC 6 was expressed in a baculovirus expression system in SF9 cells; purchased Reaction Biology Corporation (Malvern, PA); host or cells: baculovirus / SF9 insect cells. Particulars: for IC50: full-length recombinant hHDAC 6, RHKKAc substrate 50 μM, 2 h at 30 °C. The class given is biochemical. The procedure:
HDAC inhibition assays were performed by Reaction Biology Corporation (Malvern, PA). Full-length recombinant hHDAC 6 was expressed in a baculovirus expression system in SF9 cells. […] The reaction was stopped after 2 h at 30 °C . Trichostatin A was used as an internal control.

Series [2] in a line: Solubility as observed when conducting assays. It is filed as physicochemical.
Series [3] deals with T1, HDAC6. Put plainly: Western blotting of HDAC6 protein (degradation) in PC-3 cells. The class given is cell-based. More on the design: endogenous in cells; host or cells: PC-3 (ATCC). The conditions noted are these: 30 μM, 24 h. As for the experimental part: as §1, §2
Another series relates to PARP-1 and Caspase-3. Put plainly: Western blotting of apoptosis biomarkers PARP-1 and Caspase-3 in PC-3 cells. It is filed as cell-based, human. Particulars: 30 μM, 24 h. As for the experimental part:
as §1, §2

The target of a further series is T2, HDAC1 (Homo sapiens, UniProt Q13547).
T2 construct: purchased Reaction Biology Corporation (Malvern, PA)
Put plainly: HDAC enzyme activity assay (Reaction Biology), HDAC1. It is filed as biochemical.

Another series has as its system LC-3 II and p62. Put plainly: Western blotting of autophagy proteins LC-3 II and p62 in PC-3 cells. It is filed as cell-based, human. The conditions noted are these: 30 μM, 24 h. The procedure:
as §1, §2

T2 sequence (Q13547 whole entry): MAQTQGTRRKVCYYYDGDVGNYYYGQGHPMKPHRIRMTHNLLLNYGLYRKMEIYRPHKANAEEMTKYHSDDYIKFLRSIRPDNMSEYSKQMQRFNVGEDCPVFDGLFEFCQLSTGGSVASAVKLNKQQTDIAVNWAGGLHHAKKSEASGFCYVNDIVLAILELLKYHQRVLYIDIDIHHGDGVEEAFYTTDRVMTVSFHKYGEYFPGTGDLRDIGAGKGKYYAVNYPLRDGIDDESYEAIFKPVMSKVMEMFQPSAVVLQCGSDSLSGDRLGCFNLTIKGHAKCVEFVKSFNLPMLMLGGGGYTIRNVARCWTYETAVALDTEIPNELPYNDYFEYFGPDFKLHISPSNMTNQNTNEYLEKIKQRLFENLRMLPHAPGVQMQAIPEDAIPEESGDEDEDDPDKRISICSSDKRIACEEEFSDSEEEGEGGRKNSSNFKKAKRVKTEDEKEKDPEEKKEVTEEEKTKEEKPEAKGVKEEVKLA

For the compound `O=C(NO)c1ccc(Cn2c(=O)n(CCc3ccc(NCCOCCOCCOCCNc4ccc(CCn5c(=O)c6ccccc6n(Cc6ccc(C(=O)NO)cc6)c5=O)cc4)cc3)c(=O)c3ccccc32)cc1` [Compound 6a, 4-({3-[2-(4-{2-[2–(2-{2-[4-(2-{1-[(4-Hydroxamophenyl)methyl]-2,4-dioxoquinazolin-3-yl}ethyl)phenylamino]ethoxy}ethoxy)ethoxy]ethylamino}phenyl)ethyl]-2,4-dioxoquinazolin-1-yl}methyl)benzohydroxamic acid], in the series on Ac-α-tubulin, the “Ac-α-tubulin level (Western blot)” value was “unenhanced acetylated α-tubulin”. The GI50 in the series with A549 cells and in the series on PC-3 cells was greater than 30 µM throughout. Also, the IC50 at HDAC6 [1] is greater than 10 µM. In series [2], the “solubility observed when conducting assays” value is “poor solubilities”.

Take `O=C(NO)c1ccc(Cn2c(=O)n(CCOCCOCCOCCn3c(=O)c4ccccc4n(Cc4ccc(C(=O)NO)cc4)c3=O)c(=O)c3ccccc32)cc1` [Compound 8a, 4-{[3-(11-{1-[(4-Hydroxamophenyl)methyl]-2,4-dioxoquinazolin-3-yl}-3,6,9-trioxaundecyl)-2,4-dioxoquinazolin-1-yl]methyl}benzohydroxamic acid]: the “HDAC6 degradation (Western blot)” value at HDAC6 [3] is recorded as “degradation of HDAC6 was observed; also recorded: induced HDAC6 auto-degradation”. Further, the GI50 was greater than 30 µM in the series with A549 cells and 14.7 ± 1.3 µM in the series on PC-3 cells. In the series on PARP-1 and Caspase-3, the “apoptosis induction (PARP-1 cleavage, Caspase-3 activation)” value is on record as “induce apoptosis”. Moreover, the IC50 was determined as 3.33 µM on HDAC1 and 0.012 µM at HDAC6 [1]. Also, in the series on LC-3 II and p62, the “autophagy induction (LC-3 II level, p62 expression)” value is recorded as “strong autophagy induction”. Besides, the “HDAC1/6 Selectivity” value on HDAC6 [1] (ratio of HDAC1 IC50 to HDAC6 IC50) amounted to 273.
